Reference: patent publication US11231416B2, “Virus-like particle (VLP) based small molecule-protein interaction trap” (VIB VZW, priority 2015, dated 2022)
Read-outs that look alike come from different tables or passages of the source.

Experiments:
[1] = molecular target: T1, HSD17B4 (Homo sapiens, UniProt P51659); test: Binary MASPIT assay; format: cell-based; conditions: HEK293T cells, 100 ng/ml leptin, 24 hours; FIG. 4
T1 construct: endogenous in cells; host or cells: HEK293T
T1 sequence (P51659 1-736): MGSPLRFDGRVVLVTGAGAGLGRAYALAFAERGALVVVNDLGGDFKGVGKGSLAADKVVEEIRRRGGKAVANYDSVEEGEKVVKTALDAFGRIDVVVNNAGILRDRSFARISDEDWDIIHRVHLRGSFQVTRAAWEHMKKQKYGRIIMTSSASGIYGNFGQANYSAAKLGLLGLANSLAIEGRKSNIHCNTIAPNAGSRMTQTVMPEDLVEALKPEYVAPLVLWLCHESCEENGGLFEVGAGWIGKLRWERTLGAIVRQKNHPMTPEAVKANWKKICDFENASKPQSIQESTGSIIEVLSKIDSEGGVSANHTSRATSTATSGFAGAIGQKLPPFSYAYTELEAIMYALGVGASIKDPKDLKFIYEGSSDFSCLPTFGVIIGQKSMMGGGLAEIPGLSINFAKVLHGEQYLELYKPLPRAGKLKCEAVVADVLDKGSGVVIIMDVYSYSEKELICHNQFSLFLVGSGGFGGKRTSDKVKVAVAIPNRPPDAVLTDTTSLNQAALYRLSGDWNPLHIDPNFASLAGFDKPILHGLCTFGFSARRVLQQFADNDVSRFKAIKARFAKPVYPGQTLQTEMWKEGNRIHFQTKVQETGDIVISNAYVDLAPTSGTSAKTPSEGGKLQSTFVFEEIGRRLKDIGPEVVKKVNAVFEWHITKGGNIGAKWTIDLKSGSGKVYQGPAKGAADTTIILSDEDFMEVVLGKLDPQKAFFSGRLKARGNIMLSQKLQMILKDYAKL
Method: The binding of HSD17B4 to tamoxifen was further confirmed using the MASPIT technology. The binary MASPIT assay was essentially performed as described before (Risseeuw et al., 2013). Briefly, HEK293T cells were seeded in black tissue-culture treated 96-well plates at 10.000 cells/well in 100 μl culture medium (DMEM supplemented with 10% fetal calf serum), and grown at 37° C., 8% CO2. Twenty-four hours later cells were transfected with a combination of the pCLG-eDHFR plasmid (Risseeuw et al., 2013), the pMG1-HSD17B4 construct and the pXP2d2-rPAP1-luciferase reporter (Caligiuri et al., 2006). The pMG1-HSD17B4 construct was generated by Gateway transfer of the full size HSD17B4 ORF, obtained as an entry clone in the hORFeome collection, into the Gateway compatible pMG1 prey destination vector as described earlier (Lievens et al., 2009). Twenty-four hours after transfection, cells were either left unstimulated or treated with 100 ng/ml leptin, with or without addition of MTX-PEG6-tamoxifen. Another 24 hours later, luciferase activity was assayed using the Luciferase Assay System kit (Promega).

[2] = system: C28H10ORF35; conditions: all proteins (incl. low confidence identifications)
Method: (§1) For mass spectrometry, 10^7 HEK293T cells were seeded in five flasks (75 cm^2) and transfected the next day with a total of 15 μg DNA per flask using polyethylene imine reagent. The following DNA quantities were used per flask: 7.5 μg of GAG-eDHFR, 5.4 μg of mock vector and 2.1 μg of a 50/50 mix of pMD2.G and pcDNA3-FLAG-VSV-G. The small molecule fusions were added immediately after transfection to the producing cells at a concentration of 1 μM. The same dilution of dimethyl sulfoxide (DMSO) was added in control experiments to control the effect of this chemical on the cells. The cellular supernatant was harvested after 32 hours and was centrifuged for 3 minutes at 450×g to remove cellular debris. The cleared supernatant was then filtered using 0.45 μm filters (Millipore). A total of 100 μl MyOne™ Streptavidin T1 beads (Life Technologies) pre-loaded with 10 μg ANTI-FLAG® BioM2-Biotin antibody (Sigma-Aldrich®) was used to bind the tagged particles. Particles were allowed to bind for 2 hours by end-over-end rotation. The total supernatant was processed in three consecutive binding steps. Bead-particle complexes were washed once with washing buffer (TWB: 20 mM Tris-HCl pH 7.5, 150 mM NaCl) and were then eluted with FLAG peptide (200 μg/ml in TWB) and lysed by addition of SDS to a final concentration of 0.1%. After 5 minutes, SDS was removed using HiPPR Detergent Removal Spin Columns (Pierce, Thermo Scientific) followed by boiling and overnight digestion with 0.5 μg sequence-grade trypsin (Promega). After acidification (0.1% TFA final), the peptides were separated by nano-LC and directly analyzed with a Q Exactive instrument (Thermo Scientific).
(§2) For tamoxifen, four biological repeats were performed where the cells were treated with MTX-PEG6-tamoxifen after transfection. The obtained protein lists after viral trapping and MS analysis were challenged with protein lists coming from the four DMSO controls, the 19 control experiments and the lists obtained for the MTX-PEG6-simvastatin and MTX-PEG6-reversine (see below) for a total of 30 samples.

[3] = system: PRSS3; conditions: all proteins (incl. low confidence identifications)
Method: as §1, §2

[4] = system: FAM62A
Method: as §1, §2

[5] = molecular target: T2, WDR36 (Homo sapiens, UniProt Q8NI36); test: Viral trapping in VLPs, MS analysis; format: binding; conditions: all proteins (incl. low confidence identifications)
T2 construct: endogenous in cells; host or cells: HEK293T
Method: as §1, §2

[6] = molecular target: T3, CYP51A1 (Homo sapiens, UniProt Q16850); test: Viral trapping in VLPs, MS analysis; format: binding; conditions: all proteins (incl. low confidence identifications)
T3 construct: endogenous in cells; host or cells: HEK293T
Method: as §1, §2

[7] = molecular target: T4, TAOK2 (Homo sapiens, UniProt Q9UL54); test: Viral trapping in VLPs, MS analysis; format: binding; conditions: all proteins (incl. low confidence identifications)
T4 construct: endogenous in cells; host or cells: HEK293T
T4 sequence (Q9UL54 whole entry): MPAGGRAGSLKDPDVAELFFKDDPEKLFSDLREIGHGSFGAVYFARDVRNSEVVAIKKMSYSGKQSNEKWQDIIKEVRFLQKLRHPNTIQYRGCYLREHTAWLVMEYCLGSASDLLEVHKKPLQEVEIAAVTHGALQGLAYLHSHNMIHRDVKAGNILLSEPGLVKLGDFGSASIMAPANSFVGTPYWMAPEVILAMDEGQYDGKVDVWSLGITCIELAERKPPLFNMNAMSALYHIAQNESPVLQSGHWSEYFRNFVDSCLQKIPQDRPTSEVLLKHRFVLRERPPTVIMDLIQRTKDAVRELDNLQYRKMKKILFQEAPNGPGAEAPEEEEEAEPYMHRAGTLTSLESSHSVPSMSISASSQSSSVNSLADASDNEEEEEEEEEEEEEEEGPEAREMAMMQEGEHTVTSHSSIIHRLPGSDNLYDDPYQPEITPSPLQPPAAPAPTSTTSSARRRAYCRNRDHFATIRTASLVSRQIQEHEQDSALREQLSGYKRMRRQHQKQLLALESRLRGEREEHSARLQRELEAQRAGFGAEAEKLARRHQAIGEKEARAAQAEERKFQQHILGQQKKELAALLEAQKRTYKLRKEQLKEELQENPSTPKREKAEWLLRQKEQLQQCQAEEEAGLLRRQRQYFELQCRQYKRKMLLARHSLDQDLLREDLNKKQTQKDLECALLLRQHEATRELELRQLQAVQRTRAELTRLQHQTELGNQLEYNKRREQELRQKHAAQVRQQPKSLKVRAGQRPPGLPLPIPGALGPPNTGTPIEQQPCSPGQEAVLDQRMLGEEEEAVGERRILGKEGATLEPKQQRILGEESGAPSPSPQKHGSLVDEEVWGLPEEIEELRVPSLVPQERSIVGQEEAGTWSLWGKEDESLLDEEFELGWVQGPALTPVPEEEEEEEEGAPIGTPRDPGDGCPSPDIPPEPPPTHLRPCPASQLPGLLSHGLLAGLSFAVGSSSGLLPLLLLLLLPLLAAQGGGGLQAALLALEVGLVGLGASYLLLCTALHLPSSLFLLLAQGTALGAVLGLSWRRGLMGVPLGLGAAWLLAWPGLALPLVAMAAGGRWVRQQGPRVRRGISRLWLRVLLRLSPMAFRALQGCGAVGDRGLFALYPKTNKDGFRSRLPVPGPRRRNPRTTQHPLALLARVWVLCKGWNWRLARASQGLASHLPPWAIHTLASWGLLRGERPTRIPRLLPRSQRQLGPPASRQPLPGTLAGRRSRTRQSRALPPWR
Method: as §1, §2

[8] = molecular target: T5, MINK1 (Homo sapiens, UniProt Q8N4C8); test: Viral trapping in VLPs, MS analysis; format: binding; conditions: all proteins (incl. low confidence identifications)
T5 construct: endogenous in cells; host or cells: HEK293T
T5 sequence (Q8N4C8 whole entry): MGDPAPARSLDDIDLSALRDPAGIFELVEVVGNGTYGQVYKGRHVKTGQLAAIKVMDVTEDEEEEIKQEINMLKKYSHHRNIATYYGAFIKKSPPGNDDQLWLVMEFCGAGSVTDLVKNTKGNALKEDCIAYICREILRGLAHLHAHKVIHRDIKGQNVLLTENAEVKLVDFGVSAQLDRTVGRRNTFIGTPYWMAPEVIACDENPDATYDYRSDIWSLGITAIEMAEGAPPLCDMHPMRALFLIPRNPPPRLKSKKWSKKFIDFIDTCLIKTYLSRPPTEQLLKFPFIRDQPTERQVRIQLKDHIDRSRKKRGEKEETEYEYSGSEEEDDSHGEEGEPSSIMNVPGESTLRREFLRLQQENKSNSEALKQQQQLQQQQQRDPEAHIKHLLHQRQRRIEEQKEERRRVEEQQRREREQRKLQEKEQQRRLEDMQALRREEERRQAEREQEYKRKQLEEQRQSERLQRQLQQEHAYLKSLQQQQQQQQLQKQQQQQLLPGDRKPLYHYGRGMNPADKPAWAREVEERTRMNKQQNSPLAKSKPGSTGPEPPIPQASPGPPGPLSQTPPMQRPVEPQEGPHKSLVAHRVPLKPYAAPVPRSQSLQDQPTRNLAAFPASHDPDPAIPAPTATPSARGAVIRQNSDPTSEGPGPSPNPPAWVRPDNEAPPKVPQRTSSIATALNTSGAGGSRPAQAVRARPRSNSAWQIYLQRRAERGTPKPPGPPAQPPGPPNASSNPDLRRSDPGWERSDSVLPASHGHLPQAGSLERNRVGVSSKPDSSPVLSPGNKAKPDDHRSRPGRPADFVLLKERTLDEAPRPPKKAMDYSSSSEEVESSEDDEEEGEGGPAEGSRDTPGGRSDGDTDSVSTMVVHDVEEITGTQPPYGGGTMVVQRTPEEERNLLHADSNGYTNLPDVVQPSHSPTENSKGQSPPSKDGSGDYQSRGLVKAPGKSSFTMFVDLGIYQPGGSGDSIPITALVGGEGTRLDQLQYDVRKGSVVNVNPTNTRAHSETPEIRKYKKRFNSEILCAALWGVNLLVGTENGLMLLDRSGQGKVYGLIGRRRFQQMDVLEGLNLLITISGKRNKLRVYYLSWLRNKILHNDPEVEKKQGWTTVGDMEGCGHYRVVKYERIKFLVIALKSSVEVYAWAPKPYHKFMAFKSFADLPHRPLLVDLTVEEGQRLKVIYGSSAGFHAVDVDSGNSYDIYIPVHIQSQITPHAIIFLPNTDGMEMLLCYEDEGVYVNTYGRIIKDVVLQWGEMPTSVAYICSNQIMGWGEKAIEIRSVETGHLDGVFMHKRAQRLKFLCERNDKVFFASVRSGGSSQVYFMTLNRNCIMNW
Method: as §1, §2

[9] = molecular target: T6, SEC61G (Homo sapiens, UniProt P60059); test: Viral trapping in VLPs, MS analysis; format: binding
T6 construct: endogenous in cells; host or cells: HEK293T
T6 sequence (P60059 whole entry): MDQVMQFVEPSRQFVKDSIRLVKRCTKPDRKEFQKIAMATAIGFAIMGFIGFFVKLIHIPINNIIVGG
T6 sequence (P61619 whole entry partner): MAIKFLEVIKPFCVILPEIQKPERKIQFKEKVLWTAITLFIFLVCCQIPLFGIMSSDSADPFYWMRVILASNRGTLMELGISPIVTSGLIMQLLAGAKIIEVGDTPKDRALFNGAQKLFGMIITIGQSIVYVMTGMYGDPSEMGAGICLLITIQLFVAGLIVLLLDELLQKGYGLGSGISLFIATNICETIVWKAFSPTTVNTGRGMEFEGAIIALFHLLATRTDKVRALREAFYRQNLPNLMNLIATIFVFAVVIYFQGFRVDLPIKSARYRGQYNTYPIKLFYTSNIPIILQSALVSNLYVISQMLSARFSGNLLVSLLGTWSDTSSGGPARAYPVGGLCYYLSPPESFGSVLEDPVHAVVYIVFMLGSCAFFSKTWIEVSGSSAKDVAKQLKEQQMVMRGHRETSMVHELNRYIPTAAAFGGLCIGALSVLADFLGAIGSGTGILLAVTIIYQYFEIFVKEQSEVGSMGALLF
T6 sequence (P60468 2-96 partner limits assumed): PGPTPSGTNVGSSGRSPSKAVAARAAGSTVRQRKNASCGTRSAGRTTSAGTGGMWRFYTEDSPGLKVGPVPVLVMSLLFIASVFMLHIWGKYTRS
Method: as §1, §2

[10] = molecular target: T7, SEMA4G (Homo sapiens, UniProt Q9NTN9); test: Viral trapping in VLPs, MS analysis; format: binding; conditions: all proteins (incl. low confidence identifications)
T7 construct: endogenous in cells; host or cells: HEK293T
T7 sequence (Q9NTN9 18-838): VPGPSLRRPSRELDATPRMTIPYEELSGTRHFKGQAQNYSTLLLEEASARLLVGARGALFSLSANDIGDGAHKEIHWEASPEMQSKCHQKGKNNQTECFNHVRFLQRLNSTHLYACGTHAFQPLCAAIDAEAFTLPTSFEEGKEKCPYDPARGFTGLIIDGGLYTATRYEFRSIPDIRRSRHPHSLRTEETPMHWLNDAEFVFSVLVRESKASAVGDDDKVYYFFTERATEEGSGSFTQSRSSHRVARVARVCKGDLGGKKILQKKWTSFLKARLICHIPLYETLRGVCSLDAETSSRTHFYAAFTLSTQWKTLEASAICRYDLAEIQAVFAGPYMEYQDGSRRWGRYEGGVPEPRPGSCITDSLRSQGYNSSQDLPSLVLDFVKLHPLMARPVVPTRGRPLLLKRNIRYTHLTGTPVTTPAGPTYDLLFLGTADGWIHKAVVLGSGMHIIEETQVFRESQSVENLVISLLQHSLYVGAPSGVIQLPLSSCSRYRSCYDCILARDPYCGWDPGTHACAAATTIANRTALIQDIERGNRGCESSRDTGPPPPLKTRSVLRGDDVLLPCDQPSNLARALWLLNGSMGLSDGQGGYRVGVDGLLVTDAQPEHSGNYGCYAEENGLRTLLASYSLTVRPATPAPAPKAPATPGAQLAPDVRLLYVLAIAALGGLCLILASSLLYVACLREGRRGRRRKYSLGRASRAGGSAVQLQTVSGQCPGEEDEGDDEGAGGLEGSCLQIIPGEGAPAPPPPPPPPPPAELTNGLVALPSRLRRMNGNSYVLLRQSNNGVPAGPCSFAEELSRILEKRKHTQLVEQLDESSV
Method: as §1, §2

[11] = molecular target: T8, CALU (Homo sapiens, UniProt O43852); test: Viral trapping in VLPs, MS analysis; format: binding; conditions: all proteins (incl. low confidence identifications)
T8 construct: endogenous in cells; host or cells: HEK293T
T8 sequence (O43852 20-315): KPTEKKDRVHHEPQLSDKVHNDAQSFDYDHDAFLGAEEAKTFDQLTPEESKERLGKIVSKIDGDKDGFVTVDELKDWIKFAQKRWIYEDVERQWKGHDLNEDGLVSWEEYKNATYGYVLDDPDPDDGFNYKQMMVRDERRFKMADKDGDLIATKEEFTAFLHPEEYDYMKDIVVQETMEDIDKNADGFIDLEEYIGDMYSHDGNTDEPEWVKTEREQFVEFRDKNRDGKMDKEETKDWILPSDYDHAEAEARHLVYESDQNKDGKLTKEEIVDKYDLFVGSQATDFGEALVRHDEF
Method: as §1, §2

[12] = molecular target: T9, VAPA (Homo sapiens, UniProt Q9P0L0); test: Viral trapping in VLPs, MS analysis; format: binding
T9 construct: endogenous in cells; host or cells: HEK293T
T9 sequence (Q9P0L0 whole entry): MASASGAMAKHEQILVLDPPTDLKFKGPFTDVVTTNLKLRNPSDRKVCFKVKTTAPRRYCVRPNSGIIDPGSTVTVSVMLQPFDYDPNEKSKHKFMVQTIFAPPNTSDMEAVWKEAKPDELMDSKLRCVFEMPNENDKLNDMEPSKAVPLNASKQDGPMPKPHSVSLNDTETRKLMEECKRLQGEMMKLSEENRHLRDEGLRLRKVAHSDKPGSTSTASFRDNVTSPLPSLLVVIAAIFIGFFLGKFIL
Method: as §1, §2

[13] = molecular target: T10, SSR3 (Homo sapiens, UniProt Q9UNL2); test: Viral trapping in VLPs, MS analysis; format: binding; conditions: all proteins (incl. low confidence identifications)
T10 construct: endogenous in cells; host or cells: HEK293T
Method: as §1, §2

[14] = molecular target: T11, HSD17B12 (Homo sapiens, UniProt Q53GQ0); test: Viral trapping in VLPs, MS analysis; format: binding; conditions: all proteins (incl. low confidence identifications)
T11 construct: endogenous in cells; host or cells: HEK293T
T11 sequence (Q53GQ0 whole entry): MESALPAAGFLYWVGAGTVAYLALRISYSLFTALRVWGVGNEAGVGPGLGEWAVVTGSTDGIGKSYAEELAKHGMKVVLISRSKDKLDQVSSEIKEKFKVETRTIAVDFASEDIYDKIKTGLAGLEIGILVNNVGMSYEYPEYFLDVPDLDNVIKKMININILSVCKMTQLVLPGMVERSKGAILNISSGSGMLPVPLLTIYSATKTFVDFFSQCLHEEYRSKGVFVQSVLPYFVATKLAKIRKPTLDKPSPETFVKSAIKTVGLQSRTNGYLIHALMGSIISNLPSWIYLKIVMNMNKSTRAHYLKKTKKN
Method: as §1, §2

[15] = all proteins (incl. low confidence identifications)
[16] = proteins identified with >1 peptide (high confidence)

CCC(=C(c1ccccc1)c1ccc(OCCN(C)Cc2cn(CCOCCOCCOCCOCCOCCNC(=O)CCC(NC(=O)c3ccc(N(C)Cc4cnc5nc(N)nc(N)c5n4)cc3)C(=O)O)nn2)cc1)c1ccccc1 (centres unmarked) [MTX-PEG6-tamoxifen]
luciferase activity (MASPIT signal) [1]: increased luciferase activity in a dose-dependent manner | Recurrence (x/4) [2]: 1 x/4 | Recurrence (x/4) [3]: 1 x/4 | Recurrence (x/4) [4, 15]: 1 x/4 | Recurrence (x/4) [4, 16]: 1 x/4 | Recurrence (x/4) [5]: 1 x/4 | Recurrence (x/4) [6]: 1 x/4 | Recurrence (x/4) [7]: 1 x/4 | Recurrence (x/4) [8]: 1 x/4 | Recurrence (x/4) [9, 15]: 2 x/4 | Recurrence (x/4) [9, 16]: 1 x/4 | Recurrence (x/4) [10]: 1 x/4 | Recurrence (x/4) [11]: 1 x/4 | Recurrence (x/4) [12, 15]: 1 x/4 | Recurrence (x/4) [12, 16]: 1 x/4 | Recurrence (x/4) [13]: 1 x/4 | Recurrence (x/4) [14]: 1 x/4
